What all share (test): inhibition of tumour cell growth, NCI panel, 48 h
Assay [1] has as its system MCF7.
The test system of assay [2] is OVCAR-8.
In assay [3] the test system is UACC-62.
Assay [4] concerns RPMI-8226.
Assay [5] relates to NCI-H522.
In assay [6] the test system is SK-MEL-2.
In assay [7] the test system is PC-3.
The test system of assay [8] is KM12.
Assay [9] deals with MDA-MB-435.
Assay [10] concerns SF-268.
Assay [11] deals with HCT-116.
Assay [12] has as its system SK-MEL-28.
The test system of assay [13] is HT-29.
Assay [14] deals with 786-0.
In assay [15] the test system is T47D.
Assay [16] concerns MDA-MB-231.
Assay [17] has as its system SK-MEL-5.
Assay [18] deals with MDA-N.
In assay [19] the test system is HL-60.
Assay [20] deals with CCRF-CEM.

Molecules are shown by their SMILES.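 96-well plates; 48 h exposure; 5 concentrations. Endpoints by linear interpolation between flanking doses. Not reached: highest tested concentration assigned. At the GI50, growth is halved.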 Calls of active or inactive are those of the source. No stated cut-off is given here; in the data, active = GI50 up to about 1.1 µM and inactive = higher.

`CCC1(OC(=O)CNC)C(=O)OCc2c1cc1n(c2=O)Cc2cc3ccccc3nc2-1` (stereo unspecified): the GI50 in assay [1] is < 0.01 µM (active); in [2] it was 0.0126 µM (active); in [3], < 0.01 µM (active); in assay [4], < 0.0137 µM (active); in [5], < 0.0116 µM (active); in assay [6], 0.155 µM (active). The GI50 was 0.0269 µM (active) in assay [7]; 0.0685 µM (active) in assay [8]; 0.0234 µM (active) in [9]; < 0.01 µM (active) in assay [10]; 0.015 µM (active) in assay [11]; 0.213 µM (active) in [12]. The GI50 in assay [13] is 0.0335 µM (active); in assay [14], < 0.01 µM (active); in assay [15], < 0.01 µM (active); in [16], 0.31 µM (active); in assay [17], < 0.0125 µM (active); in [18] it was 0.0419 µM (active). Also, the GI50 in assay [19] and in assay [20] was < 0.01 µM (active) throughout.
On to `CN(C)c1ccc(C(=N/N=C2\C(=O)Nc3ccccc32)c2ccc(N(C)C)cc2)cc1`, for which the GI50 in assay [1] is 0.266 µM (active); in [2], 1 µM (active); in assay [3], 0.37 µM (active); in [4] it was 0.22 µM (active); in assay [5], 0.167 µM (active); in assay [6], 0.248 µM (active). Besides, the GI50 in [7] is 1.58 µM (inactive); in assay [8], 0.278 µM (active); in assay [9], 0.0214 µM (active); in assay [10], 0.942 µM (active); in [11], 0.33 µM (active); in assay [12] it was 3.17 µM (inactive). Moreover, the GI50 in assay [13] was 0.348 µM (active); in assay [14] it was 0.859 µM (active); in assay [15] it was 0.771 µM (active); in assay [16], 0.767 µM (active); in [17], 0.417 µM (active); in assay [18] it was 0.0614 µM (active). Further, the GI50 is 0.363 µM (active) in assay [19] and 0.935 µM (active) in assay [20].
As to `CC(C)(C)C#CI1OC(=O)c2ccccc21`, the GI50 in assay [1] is 4.03 µM (inactive); in assay [2], 4.36 µM (inactive); in assay [3], 4.08 µM (inactive); in assay [4], 1.81 µM (inactive); in [5], 1.76 µM (inactive); in [6] it was 10.7 µM (inactive). Besides, the GI50 in assay [7] is 6.31 µM (inactive); in [8], 6.85 µM (inactive); in [9], 3.72 µM (inactive); in assay [10], 4.34 µM (inactive); in [11], 2.48 µM (inactive); in assay [12], 4.34 µM (inactive). In addition, the GI50 in [13] is 4.16 µM (inactive); in assay [14], 3.37 µM (inactive); in assay [15] it was 3.68 µM (inactive); in assay [16], 5.94 µM (inactive); in [17], 6.08 µM (inactive); in assay [18], 4.17 µM (inactive). Also, the GI50 in [19] was 0.513 µM (active); in assay [20], 1.37 µM (inactive).
Take `CC(O)C1(CNc2cc(Cl)nc(N)n2)CCCC1` (stereo unspecified): the GI50 in assay [1], in assay [2], in [3], in [4], in assay [5] and in [6] was > 100 µM (inactive) in each case. Besides, the GI50 in [7], in assay [8], in assay [9], in [10], in [11] and in [12] was > 100 µM (inactive) in each case. The GI50 in assay [13], in assay [14], in assay [15], in assay [16], in assay [17] and in [18] was > 100 µM (inactive) in each case. In addition, the GI50 in [19] and in [20] was > 100 µM (inactive) in each case.
For `COc1cc(C2c3cc4c(cc3OC(NCCc3ccccc3)C2C)OCO4)cc(OC)c1OC` (stereo unspecified), the GI50 in assay [1] was 0.383 µM (active); in assay [2], 0.441 µM (active); in assay [3] it was 0.388 µM (active); in assay [4], 0.319 µM (active); in assay [5], 0.248 µM (active); in assay [6] it was 0.393 µM (active). Moreover, the GI50 in assay [7] was 0.336 µM (active); in assay [8] it was 0.316 µM (active); in [9] it was 0.111 µM (active); in assay [10] it was 0.736 µM (active); in assay [11], 0.409 µM (active); in assay [12], 18.3 µM (inactive). The GI50 is 0.321 µM (active) in [13]; 0.465 µM (active) in assay [14]; 0.295 µM (active) in assay [15]; 0.249 µM (active) in assay [16]; 0.224 µM (active) in [17]; 0.0638 µM (active) in assay [18]. In addition, the GI50 is 0.208 µM (active) in [19] and 0.343 µM (active) in assay [20].
Take `NCC(=O)NC(CO)C(=O)O` (stereo unspecified): the GI50 in assay [1], in [2], in assay [3], in [4], in assay [5] and in [6] was > 100 µM (inactive) throughout. The GI50 in assay [7], in [8], in assay [9], in assay [10], in assay [11] and in assay [12] was > 100 µM (inactive) throughout. The GI50 in [13], in [14], in [15], in [16], in assay [17] and in [18] was > 100 µM (inactive) each time. Also, the GI50 in assay [19] and in assay [20] was > 100 µM (inactive) each time.
With `CN(C)Cc1cc(C(=O)/C=C/c2cccc(Cl)c2)cc(CN(C)C)c1O`, the GI50 in assay [1] was 4.44 µM (inactive); in [2] it was 8.55 µM (inactive); in assay [3] it was 6.56 µM (inactive); in assay [4], 2.69 µM (inactive); in assay [5], 5.98 µM (inactive); in assay [6] it was 9.25 µM (inactive). Further, the GI50 in assay [7] is 8.99 µM (inactive); in [8], 4.97 µM (inactive); in assay [9], 3.48 µM (inactive); in assay [10], 6.62 µM (inactive); in [11], 3.21 µM (inactive); in assay [12], 4.16 µM (inactive). The GI50 in assay [13] was 4.18 µM (inactive); in assay [14], 3.29 µM (inactive); in assay [15] it was 4.18 µM (inactive); in [16], 2.75 µM (inactive); in [17], 2.41 µM (inactive); in assay [18], 3.1 µM (inactive). Further, the GI50 was 1.69 µM (inactive) in assay [19] and 2.07 µM (inactive) in assay [20].
Take `O=C1c2ccccc2CC12Cc1cc3c(cc1C2=O)CCC3` (stereo unspecified): the GI50 in assay [1] is > 100 µM (inactive); in [2] it was > 100 µM (inactive); in assay [4] it was 43.6 µM (inactive); in assay [5], > 100 µM (inactive); in [6] it was > 100 µM (inactive); in assay [7], > 100 µM (inactive). The GI50 in [9], in [10], in assay [11], in [12], in [13] and in assay [14] was > 100 µM (inactive) throughout. The GI50 in assay [15], in assay [16], in [17], in [18], in assay [19] and in [20] was > 100 µM (inactive) in each case.
For `Cc1ccc([N+](=O)[O-])cc1S(=O)(=O)Nc1ccc(C2=NN(c3ccc([N+](=O)[O-])cc3[N+](=O)[O-])C(c3cccs3)C2)cc1` (stereo unspecified), the GI50 in assay [1] was 17.3 µM (inactive); in [2], 22 µM (inactive); in assay [4] it was 10.9 µM (inactive); in assay [5] it was 10.5 µM (inactive); in assay [6] it was 12.1 µM (inactive); in assay [7], 25.9 µM (inactive). Also, the GI50 in assay [8] is 21 µM (inactive); in [9] it was 21 µM (inactive); in assay [10] it was 16.4 µM (inactive); in assay [11] it was 14.9 µM (inactive); in assay [12], 56.5 µM (inactive); in assay [13], 25.9 µM (inactive). The GI50 in assay [14] was 17.1 µM (inactive); in [15] it was 16.9 µM (inactive); in [16], 15 µM (inactive); in [17], 11.5 µM (inactive); in [18], 16.2 µM (inactive); in [19], 23.1 µM (inactive). Also, the GI50 in assay [20] is 24.5 µM (inactive).
For `CN(C)CCCNC(=O)CCNC(=O)c1cc(NC(=O)c2cc(NC(=O)c3cc(NC(=O)c4nc(NC(=O)CCCNC(=O)c5cc(NC(=O)c6cc(NC(=O)c7cc(NC(=O)c8nccn8C)cn7C)cn6C)cn5C)cn4C)cn3C)cn2C)cn1C`, the GI50 in assay [1], in assay [2], in assay [4], in assay [5], in assay [6] and in [7] was > 100 µM (inactive) each time. Besides, the GI50 is 73.5 µM (inactive) in assay [8]; > 100 µM (inactive) in assay [9]; > 100 µM (inactive) in assay [10]; > 100 µM (inactive) in [11]; > 100 µM (inactive) in [12]; > 100 µM (inactive) in assay [13]. The GI50 in assay [14], in assay [15], in assay [16], in [17], in assay [18] and in assay [19] was > 100 µM (inactive) throughout. Besides, the GI50 in assay [20] is > 100 µM (inactive).

For the origin of these results see ChEMBL document CHEMBL1201862, “PubChem BioAssay data set” (2004).
